Source: patent US8470789B2, “Method for inducing and accelerating cells” (DCPrime B.V., priority 2008, dated 2013)

Tests used:
MUTZ3-LC cultures = test: Acceleration of MUTZ3-LC differentiation in the presence of cytokines; format: cell-based, human
Procedure: The AML-derived CD34+ MUTZ3 cell line was cultured as described before (Masterson A. J. (2002) Blood 100, 701-703.). In brief, MUTZ3 progenitors were cultured in MEM-alpha (Minimum essential medium, Gibco) containing 20% fetal calves serum (FCS), 100 IU/ml sodium-penicillin, 100 microg/ml streptomycin, 2 mM L-glutamine (pen/strep/glut), 50 microM beta-mercaptoethanol (2ME) and 10% 5637 conditioned medium (MUTZ3 routine medium) in 12-well plates (Co-star) at a concentration of 0.2 million cells/ml and were passaged twice weekly. LC were cultured in MEM-alpha containing 20% FCS, pen/strep/glut, 2ME and 10 ng/ml TGF-beta 1 (Biovision, Mountain View, Calif.), 100 ng/ml rhGM-CSF (Sagramostim, Berlex) and 2.5 ng/ml TNFalpha (Strathmann Biotec) (MUTZ3-LC medium) for 10 days in 12-well plates at a concentration of 0.1 million cells/ml, adding cytokines at day 0, 4 and 7. Interstitial DC were cultured in MEM-alpha containing 20% FCS, pen/strep/glut, 2ME and 10 ng/ml IL-4 (R&D), 100 ng/ml rhGM-CSF and 2.5 ng/ml TNFalpha (MUTZ3-DC medium) Where applicable, immature DC and LC were matured, respectively, by adding 50 ng/ml TNFalpha, 100 ng/ml IL-6 (Strathmann Biotec), […] (Strathmann Biotec) and 1 microg/ml prostaglandin E2 (PGE2) (Sigma Aldrich) for 48 hours.
(§1) For mitoxantrone and doxorubicin cultures, 0.1-0.2 million cells/ml of MUTZ3 progenitors or CD34+, CD14+ and double negative (DN) magnetic bead sorted (MACS) MUTZ3 subsets (Miltenyi Biotec, Bergisch Gladbach, Germany) were seeded in 12-well plates in MUTZ3 routine medium or MUTZ3-DC/LC medium in the absence or presence of 1.04 nM, 2.08 nM, 5.6 nM, 16.7 nM mitoxantrone or 16.7 nM or 100 nM doxorubicin and were cultured for 72-96 hours before quantification of viable cells by trypan blue exclusion and phenotypic characterization by flowcytometry. DC and LC were matured (as above) on day 3 or 4 for 24 hours and were functionally tested in mixed leukocyte reaction or migration assays. In case of ABC transporter inhibition, 200 nM Ko-143 was added on day 0 to block BCRP activity.
(§2) Cells were immunophenotyped using the following FITC- and for PE-conjugated Mabs reactive against: CD1a (1:25), CD54 (1:25), CD80 (1:25), CD86 (1:25), CD40 (1:10) (PharMingen, San Diego, Calif.), CD14 (1:25), HLA-DR (1:25), DC-SIGN (1:10) (BD Biosciences, San Jose, Calif.), CD83 (1:10), CD34 (1:10), Langerin (1:10) (Immunotech, Marseille, France). In short, 2.5 to 5·10^4 cells were washed in PBS supplemented with 0.1% BSA and 0.02% NaN3 and incubated with specific or corresponding control Mabs for 30 minutes at 4° C. Where applicable, AnnexinV and/or PI (Propidium iodide) were added after marker staining and 10 minutes prior to analysis. Cells were washed and analyzed on a FACS-calibur flow cytometer (Becton and Dickinson, San Jose, Calif.) equipped with CellQuest analysis software and the results were expressed as mean or median fluorescence intensity or the percentage of positive cells.
Next we tested whether the addition of mitoxantrone or doxorubicin at the start of MUTZ3-LC cultures could boost differentiation. […] In FIG. 4A FSC/SSC plots of day 4 LC cultured with PBS or mitoxantrone and CD1a/Langerin expression on these cultures are depicted.

CD34+ MUTZ3 cells = test: Drug-induced differentiation of isolated CD34+ MUTZ3 cells; format: cell-based, human; settings: for share of induced CD1a+ cells also expressing Langerin: CD34+ sorted cells
Procedure: as §1, §2
To see whether the skewing effect was due to CD34^+ cell death, automatically leading to an altered CD34^+/CD14^+ ratio or whether it induced differentiation of CD34^+ cells into CD14^+ cells and LC, isolated CD34^+ and CD14^+ cells were incubated with 16.7 nM mitoxantrone or 100 nM doxorubicin for 72 hours and were analyzed for differentiation induction.

MUTZ3 progenitors [1] = test: 96 hour cytotox assay (Trypan blue exclusion); format: cell-based, human
Procedure: as §1
MUTZ3 progenitor cells were analyzed for their sensitivity to the cytostatic drug mitoxantrone. […] (An example of such trypan blue assay is: place a suitable volume of a cells suspension in appropriate tube add an equal volume of 0.4% Trypan blue and gently mix, let stand for 5 minutes at room temperature. Place 10 μl of stained cells in a hemocytometer and count the number of viable (unstained) and dead (stained) cells. Calculate the average number of unstained cells in each quadrant, and multiply by 2*10^4 to find cells/ml. The percentage of viable cells is the number of viable cells divided by the number of dead and viable cells, and the IC50 can be determined)

human skin DC = test: Human skin explant DC migration after intradermal injection; format: cell-based
Procedure: To establish whether mitoxantrone could be beneficial as a local adjuvant, human skin explants were intra-dermally injected with GM-CSF and IL-4 in combination with 2.08 nM, 5.6 nM or 16.7 nM mitoxantrone and 6 mm punch biopsies were floated in medium containing the same concentration of mitoxantrone. Skin DC were allowed to migrate from the biopsies for 2 days, after which they were harvested, quantified and phenotyped.

[2] = system: CD34+ heamatopoietic precursors isolated from human blood; test: Response of CD34+ heamatopoietic progenitors from blood to mitoxantrone; format: cell-based; settings: 16.7 nM mitoxantrone
MUTZ3 progenitors [3] = test: Expansion and DC marker expression of MUTZ3 progenitors cultured with drug (flow cytometry); format: cell-based, human
Procedure: as §1, §2
Similar experiments were carried out with the drug doxorubicin.

[4] = system: MUTZ3-DC and -LC cultures; test: Titration of mitoxantrone in MUTZ3-DC and -LC cultures, phenotype analysis; format: cell-based, human
Procedure: as §1, §2
In MUTZ3-DC and -LC cultures, a 2-step titration of the 16.7 nM mitoxantrone concentration was performed and DC/LC phenotypes were analyzed after 72-96 hours.

[5] = system: MUTZ3 subpopulations (CD14+, CD34+, DN); test: Apoptosis and cell death (Annexin V) in MACS-separated MUTZ3 subpopulations; format: cell-based, human
Procedure: as §1, §2

CD14+ MUTZ3 cells = test: Drug-induced differentiation of isolated CD14+ MUTZ3 cells; format: cell-based, human; settings: 72 hours, vs PBS control
Procedure: as §1
as §2, with “In short, 2.5 to 5·10^4 cells were washed in PBS supplemented with 0.1% BSA and 0.02% NaN3 and incubated with specific or corresponding control Mabs for 30 minutes at 4° C. Where applicable, AnnexinV and/or PI (Propidium iodide) were added after marker staining and 10 minutes prior to analysis.” left out, “cells. […]” for “cells.”

MUTZ3-DC = test: Trans-well migration towards CCL19 and CCL21; format: cell-based, human; settings: day 4 mitoxantrone-generated DC
Procedure: as §1
(§3) If such mitoxantrone-generated DC are to be used for future vaccination strategies, they need to be functionally fully active. Therefore MUTZ3-DC cultured in the absence or presence of mitoxantrone, were analyzed in a trans-well assay for their capacity to migrate towards the chemokines CCL19 and CCL21 (FIG. 7A) and were tested in a MLR for their capacity to stimulate allogeneic T cell proliferation (FIG. 7B).

[6] = system: CD14+ monocytes isolated from blood; test: Response of CD14+ monocytes isolated from blood to mitoxantrone; format: cell-based, human
[7] = system: MUTZ3-DC / peripheral blood lymphocytes; test: Mixed leukocyte reaction (MLR), T cell proliferation; format: cell-based, human; settings: day 4 mitoxantrone-generated DC
Procedure: 1·10^2-3·10^4 DC were co-cultured with 1·10^5 peripheral blood lymphocytes for 4 days in 96-wells plates in IMDM (Iscove's modified dulbecco's medium) containing 10% human pooled serum (HPS), pen/strep/glut and 2ME. At day 4, 2.5 μCi/ml [^3H]-thymidine (6.7 Ci/mmol, MP Biomedicals, Irvine, Calif.) was added per well for 16 hours. Plates were harvested onto glass fiber filtermats (Packard Instruments, Groningen, The Netherlands) using a Skatron cell harvester (Skatron Instruments, Norway), and [^3H]-thymidine incorporation was quantified using a Topcount NXT Microbetacounter (Packard, Meriden, Conn.).
as §3

[8] = 2.08 nM mitoxantrone, mature day 4 MUTZ3-DC/LC

SMILES: O=C1c2c(O)ccc(O)c2C(=O)c2c(NCCNCCO)ccc(NCCNCCO)c21 [mitoxantrone]
- expression levels of HLA-DR and CD54 (MUTZ3-LC cultures; 16.7 nM mitoxantrone, day 4): higher expression levels
- expression of co-stimulatory molecules CD80 and CD86 (MUTZ3-LC cultures; 16.7 nM mitoxantrone, day 4): enhanced expression
- percentage of CD14+ and CD34+ cells (MUTZ3-LC cultures; 16.7 nM mitoxantrone, day 4, 3 experiments, p=0.04 and p=0.02): significant decrease
- amount of cells expressing maturation marker CD83 (MUTZ3-LC cultures; 16.7 nM mitoxantrone, day 4, p=0.03): significant raise
- day on which fully differentiated cells were obtained (MUTZ3-LC cultures; mitoxantrone with cytokines, control cultures 8-10 days): 4 days
- cells CD1a hi Langerin+ (MUTZ3-LC cultures; single dose 16.7 nM mitoxantrone at day 0, read day 4, control 25%): 76%
- share of induced CD1a+ cells also expressing Langerin (CD34+ MUTZ3 cells; 16.7 nM mitoxantrone, 72 hours): approximately 50%
- CD1a and Langerin expression in CD34+ subset (CD34+ MUTZ3 cells; 16.7 nM mitoxantrone, 72 hours, n=3, p=0.02 CD1a, p=0.03 Langerin): significant increase
- IC50 (MUTZ3 progenitors [1]; Homo sapiens, 96 hour, Trypan blue exclusion, n=3): 1.5 ± 0.5 nM
- IC60 concentration on MUTZ3 progenitors (MUTZ3 progenitors [1]; cytotoxic effect): 5.6 nM
- IC70 concentration on MUTZ3 (MUTZ3 progenitors [1]; cytotoxic effect): 16.7 nM
- increase in amount of migrated skin DC (human skin DC; 2.08 nM mitoxantrone with GM-CSF and IL-4, intradermal, 2 days): 50-60%
- increase in amount of migrated skin DC (human skin DC; 5.6 nM mitoxantrone with GM-CSF and IL-4, intradermal, 2 days): 50-60%
- amount of migrated skin DC (human skin DC; 16.7 nM mitoxantrone with GM-CSF and IL-4, intradermal, 2 days): only slightly increased
- amount of skin emigrating DC (human skin DC; low dose of mitoxantrone in plain medium, intradermal): increased the amount of skin emigrating DC
- CD34+ and CD14+ cell content ([2]; 72 hours, Flt3-L and SCF): loss of most CD34 positive cells and an increase in CD14 positive cells
- percentage of CD1a+ Langerin+ cells ([2]; within 72 hours, LC-skewing cytokines, n=2): increase
- cell division (expansion) (MUTZ3 progenitors [3]; 5.6 nM and 16.7 nM mitoxantrone, 72 hours): dramatically compromising cell division
- differentiation of MUTZ3 progenitors (CD34+/CD14+ ratio, CD1a, Langerin, CD86, CD80) (MUTZ3 progenitors [3]; 5.6 nM and 16.7 nM mitoxantrone, 72 hours, no differentiating cytokines): drove the surviving MUTZ3 progenitors to differentiation
- effect on MUTZ3-DC and -LC differentiation ([4]; 2.08 nM mitoxantrone, 72-96 hours): robust effect
- HLA-DR expression vs control cultures ([4]; 2.08 nM mitoxantrone, day 4 vs day 7 control): even higher than on the control cultures
- amount of CD1a, Langerin, CD80, CD40 and CD83 expressing cells [4, 8]: increased
- expression levels of CD80, CD86, CD40 and HLA-DR [4, 8]: enhanced
- Langerin expression in MUTZ3-DC cultures ([4]; cultures supplied with mitoxantrone): increased
- apoptosis and cell death, CD34+ population ([5]; mitoxantrone, 72 hours): sensitive to the drug
- apoptosis and cell death, CD14+ population ([5]; mitoxantrone, 72 hours, Annexin V): not affected
- apoptosis and cell death, DN population ([5]; mitoxantrone, 72 hours, sensitivity relative to CD34+): to a lesser extent
- percentages of CD1a+ or Langerin+ cells in CD14+ cells (CD14+ MUTZ3 cells; 16.7 nM mitoxantrone): not affected
- capacity to migrate towards CCL19 and CCL21 (MUTZ3-DC): comparable to day 7 matured control DC
- cell viability [6]: no effect
- differentiation induction [6]: nor was any differentiation induction observed
- capacity to stimulate allogeneic T cell proliferation [7]: equipped to induce T cell proliferation

SMILES: COc1cccc2c1C(=O)c1c(O)c3c(c(O)c1C2=O)C[C@@](O)(C(=O)CO)C[C@@H]3O[C@H]1C[C@H](N)[C@H](O)[C@H](C)O1 [doxorubicin]
- CD1a and Langerin expression on CD34+ MUTZ3 cells (CD34+ MUTZ3 cells; 100 nM doxorubicin, 72 hours): induced CD1a and Langerin expression
- share of induced CD1a+ cells also expressing Langerin (CD34+ MUTZ3 cells; 100 nM doxorubicin, 72 hours): approximately 50%
- IC70 concentration on MUTZ3 (MUTZ3 progenitors [1]; cytotoxic effect): ~100 nM
- LC differentiation of MUTZ3 progenitors (MUTZ3 progenitors [3]; 16.7 nM doxorubicin): no effects were observed
- LC differentiation of MUTZ3 progenitors (MUTZ3 progenitors [3]; IC70 concentration of doxorubicin (~100 nM)): induced LC differentiation of MUTZ3 progenitors
- apoptosis and cell death in the three MUTZ3 subpopulations, compared with mitoxantrone ([5]; 100 nM doxorubicin): Comparable results
- percentages of CD1a+ or Langerin+ cells in CD14+ cells (CD14+ MUTZ3 cells; 100 nM doxorubicin): not affected

SMILES: COc1ccc2c3c([nH]c2c1)[C@H](CC(C)C)N1C(=O)[C@H](CCC(=O)OC(C)(C)C)NC(=O)[C@@H]1C3 [Ko-143]
- abrogation of mitoxantrone-induced CD1a and Langerin expression by BCRP inhibitor (CD34+ MUTZ3 cells; 200 nM Ko-143 added on day 0, mitoxantrone-treated CD34+ MUTZ3 cells): could not abrogate
